# In PMC8046379, “Fragment binding to the Nsp3 macrodomain of SARS-CoV-2 identified through crystallographic screening and computational docking” (Science Advances, 2021):
# Target: T1, SARS-CoV-2 Nsp3 Mac1 (Severe acute respiratory syndrome coronavirus 2, UniProt P0DTD1)
# Assay: biochemical
# Type: binding
# Conditions: ADPr-peptide displacement from His6-Mac1; ± estimated SE
row,Compound,IC50 [µM]
1,Cn1cnc2c(N)nc(N)nc21 [ZINC26180281],> 2000
2,CN(CC1CCCOC1)c1ncc(O)cn1 (stereo not drawn) [ZINC1337772170],971
3,Nc1nc2nccnc2c(=O)[nH]1 [pterin],784

# Target: T1, SARS-CoV-2 Nsp3 Mac1
# Assay: biochemical
# Type: binding
# Conditions: not given
row,Compound,Kd [µM]
1,Cn1cnc2c(N)nc(N)nc21 [ZINC26180281],2900 ± 700

# Target: T1, SARS-CoV-2 Nsp3 Mac1
# Assay: not given
# Type: binding
# Conditions: fragments 0.188 to 3 mM concentration response
row,Compound,"effect on apparent melting temperature (Tma) in DSF, in words"
1,Cc1c(C)n(Cc2ccco2)c2ncnc(N)c12 [ZINC3888754],stabilized Mac1
2,"adenosine diphosphate ribose [ADP-ribose, reference compound]",substantial elevation
3,Cn1cnc2c(N)nc(N)nc21 [ZINC26180281],stabilized Mac1
4,CN(CC1CCCOC1)c1ncc(O)cn1 (stereo not drawn) [ZINC1337772170],not identified as binders
5,Nc1nc2nccnc2c(=O)[nH]1 [pterin],not identified as binders
